The text below walks through data of patent US20100074881A1, “MULTIPLE NEBULIZER SYSTEMS” (PARION SCIENCES, Inc., priority 2008, published 2010).

One series has as its system airways. The following applies: concurrent use of hypertonic saline and amiloride; cited from earlier work.
The nature of series [1]: Solubility of PS552-02 in NaCl solutions. In kind it is physicochemical. The text has this:
(§1) A specific example of an application for the dual-nebulizer technology is illustrated in the following example in which the desired co-delivery of two therapeutic agents that act synergistically is not possible due to the incompatibility of these agents in a single formulation. […] However, due to the poor solubility of PS552-02 in NaCl solutions, these two agents cannot be formulated together. Currently, administration of PS552-02 and hypertonic saline would require two independent nebulizer treatments. However, a dual nebulizer system alleviates this issue by allowing both agents to be simultaneously delivered. Compound PS552-02 is represented by the formula: […]

A further series deals with airway surface. Nature of the series: Airway surface hydration with PS552-02 and hypertonic saline. The conditions noted are these: PS552-02 together with hypertonic saline (3-7%).
Text: as §1

For the molecule `N=C(N)NC(=O)c1nc(Cl)c(N)nc1N` [Amiloride, amiloride], the “effect on water permeability of airways” value in the series with airways was “block the water permeability of airways”.
Take `N=C(NCCCCc1ccc(OCC(O)CO)cc1)NC(=O)c1nc(Cl)c(N)nc1N` (stereo not drawn) [PS552-02]: the “solubility in NaCl solutions” value in series [1] is recorded as “poor”. Besides, the airway surface hydration entry with airway surface is listed as “synergistically enhance”.
